Experimental data as given in patent US12503452B2 (Curza Global, LLC, priority 2019, dated 2025).
Counter-ions that a name gives are not always drawn. Like-named read-outs stand apart in the source and are kept apart here.

What was measured:
[1] = biological target: Rabbit Reticulocyte Lysate (eukaryotic protein synthesis); assay: Rabbit reticulocyte lysate luciferase assay (inhibition of eukaryotic protein synthesis); type: biochemical; details: read-out: Rabbit reticulocyte IC50 (μM/% inhib.)
Experimental: Inhibition of eukaryotic protein synthesis was determined using the Rabbit Reticulocyte Lysate System, Nuclease-Treated from Promega (catalog #L-4960) with slight modifications to the manufacturer's protocol. Compounds were serial diluted in 0.5 mL microcentrifuge tubes by mixing and transferring 50 μL from the highest concentration to 50 μL of water, mixing and transferring 50 μL of this 2-fold dilution to 50 μL of water. This mixing and transferring was repeated so that there are a total of 8 tubes with serial dilutions of compound at 10× the desired screening concentration that are ultimately diluted to 1× by the addition of rabbit reticulocyte luciferase synthesis mixture. Serial dilutions of compounds were added ([…]) to wells in a black round bottom 96-well plate. Water (2.5 μL) was used as a “no inhibitor” control in 4 wells/plate. No RNA control reaction mixture ([…]; see below) was used as a control in 4 wells/plate for background luminescence. Rabbit reticulocyte luciferase synthesis mixture (22.5 μL; see below) was added to wells with compounds or water mixture and incubated at 30° C. for 90 minutes. Luciferase assay reagent (25 μL) was added with luminescence measured using a BioTek Synergy HTX plate reader. % Inhibition was determined relative to no inhibitor controls.
Rabbit reticulocyte luciferase synthesis mixture:
• 1,000 μL rabbit reticulocyte lysate • 5.7 μL Luciferase Control RNA (1 μg/μL) • 26 μL complete amino acid mixture • 395 μL water No RNA Control • 70 μL rabbit reticulocyte lysate • 2 μL complete amino acid mixture • 28 μL water Minimum Inhibitory Concentration (MIC)

[2] = test system: E. coli S30 extract (bacterial protein synthesis); assay: E. coli S30 extract coupled transcription-translation luciferase assay (inhibition of bacterial protein synthesis); type: biochemical; details: read-out: S30 IC50 (μM/% inhib.)
Experimental: E. coli S30 extract: Inhibition of bacterial protein synthesis was determined using the E. coli S30 Extract System for Circular DNA (Promega catalog #L-2010) and Luciferase Assay Reagent (Promega catalog #E1500) with slight modifications to a published protocol. Fyfe, C., Sutcliffe, J. A. and Grossman, T. H. (2012) “Development and characterization of a Pseudomonas aeruginosa in vitro coupled transcription-translation assay system for evaluation of translation inhibitors” J. Microbiol. Methods 90(3), 256-261.
Compounds were serial diluted in 0.5 mL microcentrifuge tubes by mixing and transferring 50 μL from the highest concentration to 50 μL of water, mixing and transferring 50 μL of this 2-fold dilution to 50 μL of water. This mixing and transferring was repeated so that there are a total of 8 tubes with serial dilutions of compound at 10× the desired screening concentration that are ultimately diluted to 1× by the addition of S30 luciferase synthesis mixture. Serial dilutions of compounds were added (2 μL) to wells in a black round bottom 96-well plate. Water (2 μL) was used as a “no inhibitor” control in 4 wells/plate. No DNA control reaction mixture (20 μL; see below) was used as a control in 4 wells/plate for background luminescence. S30 luciferase synthesis mixture (18 μL; see below) was added to wells with compounds or water mixture and incubated at 37° C. for 1 hour. Reactions were stopped by transferring to 4° C. refrigerator for 5 minutes then 25 μL of luciferase activity mix was added. Luminescence was measured using a BioTek Synergy HTX plate reader. % Inhibition was determined relative to no inhibitor controls.
S30 luciferase synthesis mixture:
• 445 μL S30 extract, circular • 712 μL S30 Premix without amino acids • 4.45 μL pBESTluc™ DNA (1 μg/μL) • 78 μL complete amino acid mixture • 267 μL water No DNA control: • 20 μL S30 extract, circular • 32 μL S30 Premix without amino acids • 7 μL complete amino acid mixture • 21 μL water Rabbit Reticulocyte lysate

[3] = class by IC50 or % inhibition @ 1 μM

| Compound | IC50 [1, 3] | IC50 [2, 3] | IC50 ([1]; % inhibition @ 1 μM) | IC50 ([2]; % inhibition @ 1 μM) |
| --- | --- | --- | --- | --- |
| CC[C@@H]1CN(C(=O)Nc2ccn(-c3ccc(CN4CCC(N)CC4)cc3)c(=O)n2)CCN1C(=O)C(C)(C)N [Compound 67] | > 1 µM | > 1 µM |  |  |
| C[C@@H]1CN(C(=O)C(C)(C)N)[C@@H](C)CN1C(=O)Nc1ccn(-c2ccc(CN3CCC(N)CC3)cc2)c(=O)n1 [Compound 60] | > 1 µM |  |  |  |
| CC(C)(N)CC(=O)N1CCN(C(=O)Nc2ccn(-c3ccc(CCN4CCC(N)CC4)cc3)c(=O)n2)CC1 [Compound 197] |  | > 1 µM |  |  |
| NCC1CN(C(=O)Nc2ccn(-c3ccc(CN4CCC(N)CC4)cc3)c(=O)n2)CCO1 (stereo not drawn) [Compound 51] | > 1 µM | > 1 µM |  |  |
| CC(C)(N)C(=O)N1CCN(C(=O)Nc2ccn(-c3ccc(C(C)(C)CN4CC[C@@H](CN)C4)cc3)c(=O)n2)CC1 [Compound 38] | > 1 µM | > 1 µM |  |  |
| NC[C@@H]1CCN(C(=O)Nc2ccn(-c3ccc(CN4CCC(N)CC4)cc3)c(=O)n2)C1 [Compound 53] | > 1 µM | > 1 µM |  |  |
| CC(C)(N)C(=O)N1CCN(C(=O)Nc2ccn(-c3cccc(CCN4CC[C@H](N)C4)c3)c(=O)n2)CC1 [Compound 6] | > 1 µM | > 1 µM |  |  |
| CC(C)(N)C(=O)N1CCN(C(=O)Nc2ccn(-c3ccc(CCN4CC[C@H](CN)C4)cc3)c(=O)n2)CC1 [Compound 17] | > 1 µM | < 0.5 µM |  |  |
| CC1CN(Cc2ccc(-n3ccc(NC(=O)N4CCN(C(=O)[C@@](C)(N)CO)CC4)nc3=O)cc2)CCC1N (stereo in doubt) [Compound 224] | > 1 µM | < 0.5 µM |  |  |
| COC(=O)[C@@H]1CN(C(=O)C(C)(C)N)CCN1C(=O)Nc1ccn(-c2ccc(CN3CCC(N)CC3)cc2)c(=O)n1 [Compound 63] | > 1 µM | 0.5 to 1 µM |  |  |
| CC(C)(N)C(=O)N1C[C@@H]2CC1CN2C(=O)Nc1ccn(-c2ccc(CN3CCC(N)CC3)cc2)c(=O)n1 [Compound 80] | > 1 µM | 0.5 to 1 µM |  |  |
| CC(C)(N)CC(=O)N1CCN(C(=O)Nc2ccn(-c3cccc(CN4CCC(N)CC4)c3)c(=O)n2)CC1 [Compound 362] |  |  | > 1 µM | > 1 µM |
| CC[C@H]1CN(C(=O)Nc2ccn(-c3ccc(CN4CCC(N)CC4)cc3)c(=O)n2)CCN1C(=O)C(C)(C)N [Compound 66] | > 1 µM | > 1 µM |  |  |
| CC(C)(N)CC(=O)N1CCN(C(=O)Nc2ccn(-c3cccc(CN4CCC(C)(N)CC4)c3)c(=O)n2)CC1 [Compound 363, hydrochloride salt] |  |  | > 1 µM | > 1 µM |
| CC(C)(N)C(=O)N1CCN(C(=O)Nc2ccn(-c3ccc(CCN4CC(N)C4)cc3)c(=O)n2)CC1 [Compound 16] | > 1 µM | > 1 µM |  |  |
| C[C@](N)(CO)C(=O)N1CCN(C(=O)Nc2ccn(-c3ccc(CCN4CC[C@@H](N)C4)cc3)c(=O)n2)CC1 [Compound 11] | > 1 µM | 0.5 to 1 µM |  |  |
| CC(C)(N)C(=O)N1CCN(C(=O)Nc2ccn(-c3ccc(CN4CC(CCN)(C(=O)O)C4)cc3)c(=O)n2)CC1 [Compound 369, hydrochloride salt] |  |  | > 1 µM | > 1 µM |
| C[C@H](N)C1CCN(Cc2ccc(-n3ccc(NC(=O)N4CCN(C(=O)C(C)(C)N)[C@H](C)C4)nc3=O)cc2)CC1 [Compound 206] | > 1 µM | > 1 µM |  |  |
| Cc1cc(-n2ccc(NC(=O)N3CCN(C(=O)C(C)(C)N)CC3)nc2=O)ccc1CN1CCC(NC(=N)N)CC1 [Compound 104] | > 1 µM | < 0.5 µM |  |  |
| CC1(N)CCN(CCc2ccc(-n3ccc(NC(=O)N4CCN(C(=O)C(C)(N)CO)CC4)nc3=O)cc2)CC1 (stereo in doubt) [Compound 361] |  |  | > 1 µM | > 1 µM |
| CC(C)(N)C(=O)N1CCN(C(=O)Nc2ccn(-c3cccc(CCN4CC[C@@H](N)C4)c3)c(=O)n2)CC1 [Compound 5] | > 1 µM | > 1 µM |  |  |

| Compound | IC50 [1, 3] | IC50 [2, 3] | IC50 ([1]; % inhibition @ 1 μM) | IC50 ([2]; % inhibition @ 1 μM) |
| --- | --- | --- | --- | --- |
| CC(C)(N)C(=O)N1CCN(C(=O)Nc2ccn(-c3ccc(CN4CCC(C(F)(F)F)CC4)cc3)c(=O)n2)CC1 [Compound 107] | > 1 µM | > 1 µM |  |  |
| CC(C)(N)C(=O)N1CCN(C(=O)Nc2ccn(-c3ccc(C(C)(C)CN4CCCC(N)CC4)cc3)c(=O)n2)CC1 (stereo not drawn) [Compound 37] | > 1 µM | > 1 µM |  |  |
| CC(C)(N)C(=O)N1CCN(C(=O)Nc2ccn(-c3ccc(CCN4CC[C@H](N)C4)cc3)c(=O)n2)CC1 [Compound 7] |  | > 1 µM |  |  |
| Cc1cc(-n2ccc(NC(=O)N3CCN(C(=O)CC(C)(C)N)CC3)nc2=O)ccc1CN1CCC(N)CC1 [Compound 94] | > 1 µM | > 1 µM |  |  |
| CC(C)(N)C(=O)N1CCN(Cc2ccc(-n3ccc(NC(=O)N4CCN(C(=O)C(C)(C)N)CC4)nc3=O)cc2)CC1 [Compound 225] | > 1 µM | > 1 µM |  |  |
| CC(C)(N)C(=O)N1CCN(C(=O)Nc2ccn(-c3ccc(CCN4CC[C@@H](CN)C4)cc3)c(=O)n2)CC1 [Compound 18] | > 1 µM | < 0.5 µM |  |  |
| CC(C)(N)C(=O)N1CCN(C(=O)Nc2ccn(-c3ccc(C(C)(C)CN4CC[C@H](CN)C4)cc3)c(=O)n2)CC1 [Compound 39] | > 1 µM | > 1 µM |  |  |
| CC[C@@H]1CN(C(=O)C(C)(C)N)CCN1C(=O)Nc1ccn(-c2ccc(CN3CCC(N)CC3)cc2)c(=O)n1 [Compound 84] | > 1 µM | > 1 µM |  |  |
| C[C@H]1CN(C(=O)Nc2ccn(-c3ccc(CN4CCC(N)CC4)cc3)c(=O)n2)CCN1C(=O)C(C)(C)N [Compound 72] | > 1 µM | 0.5 to 1 µM |  |  |
| CC(C)(N)C(=O)N1CCN(C(=O)Nc2ccn(-c3ccc(CN4CCC(N)CC4)cc3)c(=O)n2)C[C@H]1C(=O)O [Compound 81] | > 1 µM | > 1 µM |  |  |
| CC(C)(N)C(=O)N1CCN(C(=O)Nc2ccn(-c3ccc(CCN4CCCC(CN)C4)cc3)c(=O)n2)CC1 (stereo not drawn) [Compound 10] | > 1 µM | < 0.5 µM |  |  |
| NC[C@H]1CCN(C(=O)Nc2ccn(-c3ccc(CN4CCC(N)CC4)cc3)c(=O)n2)C1 [Compound 52] | > 1 µM | > 1 µM |  |  |
| C[C@H](N)C1CCN(Cc2ccc(-n3ccc(NC(=O)N4CCN(C(=O)[C@@](C)(N)CO)C[C@H]4C)nc3=O)cc2)CC1 [Compound 207] | > 1 µM | > 1 µM |  |  |
| CC(C)(N)C(=O)N1CCN(C(=O)Nc2ccn(-c3ccc(CCN4CCC[C@H](N)C4)cc3)c(=O)n2)CC1 [Compound 9] |  | > 1 µM |  |  |
| CNC1CCN(CCc2cccc(-n3ccc(NC(=O)N4CCN(C(=O)C(C)(C)N)CC4)nc3=O)c2)CC1 [Compound 4] |  | > 1 µM |  |  |
| C[C@H](N)C(=O)NC1CCN(Cc2ccc(-n3ccc(NC(=O)N4CCN(C(=O)[C@@](C)(N)CO)CC4)nc3=O)cc2)CC1 [Compound 100] | > 1 µM | 0.5 to 1 µM |  |  |
| CC(C)(N)C(=O)N1CCN(C(=O)Nc2ccn(-c3ccc(CN4CCC(N)CC4)cc3)c(=O)n2)CC1c1ccccc1 (stereo not drawn) [Compound 75] | > 1 µM |  |  |  |
| CC(C)(N)C(=O)N1CCN(C(=O)Nc2ccn(-c3ccc(CN4CCC(NC(=N)N)CC4)cc3)c(=O)n2)CC1 [Compound 105] | < 0.5 µM | < 0.5 µM |  |  |
| CC(C)(N)C(=O)N1CCN(C(=O)Nc2ccn(-c3cccc(CCN4CCCC(CN)C4)c3)c(=O)n2)CC1 (stereo not drawn) [Compound 3] |  | > 1 µM |  |  |
| C[C@@H]1CN(C(=O)C(C)(C)N)C[C@H](C)N1C(=O)Nc1ccn(-c2ccc(CN3CCC(N)CC3)cc2)c(=O)n1 [Compound 76] | > 1 µM |  |  |  |
| CC(C)(N)C(=O)N1CCN(C(=O)Nc2ccn(-c3ccc(CN4CCC(N)CC4)cc3)c(=O)n2)CC1(C)C [Compound 73] | > 1 µM |  |  |  |
